Laboratory results published in patent US7547799B1, “Method for producing phenolic compound” (Sabic Innovative Plastics IP B.V., priority 2008, dated 2009).

Assay: Determination of the solubility of BMSC in MeOH at 65° C. (with reflux)
Assay type: physicochemical
Experimental: Determination of the Solubility of BMSC in MeOH at 65° C. (with Reflux):
BMSC was loaded in a round bottom flask, a small amount of MeOH was added to the BMSC, to form a slurry. This mixture was heated up to 65° C. under reflux. MeOH was then continuously added under vigorous stirring, until a lucid and colorless solution was obtained.

Structure (SMILES): COC(=O)c1ccccc1OC(=O)Oc1ccccc1C(=O)OC [BMSC, bismethylsalicylcarbonate]
- solubility of BMSC in MeOH (lucid and colorless solution obtained) (65° C., under reflux, vigorous stirring): 5.8 mass %
- solution of BMSC in MeOH obtainable under reflux (restated in the discussion): 6%
